Results published in patent US5849525A, “Compositions corresponding to a proton-coupled peptide transporter and methods of making and using same” (Brigham and Women's Hospital, Inc., priority 1995, dated 1998).
Square brackets hold non-standard residues; d marks the D form. Peptide text beside a SMILES is read from it. Sar = CNCC(=O)O

Assays:
Xenopus laevis oocytes = test: Thin-layer chromatography of solubilized oocytes incubated in 14C-Gly-Sar (hydrolysis); format: in vitro ADME; conditions: 1 mM 14C-Gly-Sar, pH 5.5, seven hours
[1] = molecular target: T1, proton-coupled peptide transporter (Oryctolagus cuniculus, UniProt P36836); test: Two-electrode voltage clamp of Xenopus laevis oocytes injected with transporter cRNA: substrate-evoked inward currents and Km; format: cell-based, rabbit; conditions: uptake solution pH 5.5
T1 construct: Xenopus laevis oocytes were injected with cRNA coding the proton-coupled peptide transporter; expressed in transfected cells; host or cells: Xenopus laevis oocytes injected with cRNA transcribed in vitro from the cloned cDNA
T1 sequence (P36836 1-707): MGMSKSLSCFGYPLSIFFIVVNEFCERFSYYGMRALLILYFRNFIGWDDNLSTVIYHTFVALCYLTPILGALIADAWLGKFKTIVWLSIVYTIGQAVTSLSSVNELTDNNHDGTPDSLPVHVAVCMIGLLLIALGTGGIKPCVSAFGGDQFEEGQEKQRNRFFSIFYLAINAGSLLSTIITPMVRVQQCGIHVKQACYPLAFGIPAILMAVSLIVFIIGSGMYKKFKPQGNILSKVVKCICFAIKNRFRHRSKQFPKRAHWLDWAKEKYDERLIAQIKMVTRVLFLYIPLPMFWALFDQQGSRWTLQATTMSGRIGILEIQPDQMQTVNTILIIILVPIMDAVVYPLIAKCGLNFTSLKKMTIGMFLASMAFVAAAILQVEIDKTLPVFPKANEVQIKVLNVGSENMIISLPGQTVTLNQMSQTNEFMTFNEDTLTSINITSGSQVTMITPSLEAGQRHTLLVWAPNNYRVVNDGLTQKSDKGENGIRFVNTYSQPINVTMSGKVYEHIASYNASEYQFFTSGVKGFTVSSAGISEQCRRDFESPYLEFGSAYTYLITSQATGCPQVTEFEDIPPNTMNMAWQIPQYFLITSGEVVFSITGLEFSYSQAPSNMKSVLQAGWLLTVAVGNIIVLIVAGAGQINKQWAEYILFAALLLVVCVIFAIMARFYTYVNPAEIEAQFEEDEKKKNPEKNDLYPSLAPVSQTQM
Text: These oocytes were subjected to two electrode voltages clamp analysis (Gene Clamp 500, Axon Instruments, California) in the manner described in Kanaisy & Hediger, M. A. Nature 360, 467-71 (1992).
FIG. 9 depicts electrophysiological measurements of transformed cocytes as a percent of glycyl-sarcosine evoked current. Data representing glycyl-sarcosine are depicted as a solid black bar. Data representing peptide are depicted with dotted bars. Data representing antibiotics are depicted with hatched bars.
By altering peptide concentrations, current amplitudes for different compositions, Km values were determined.

[2] = molecular target: T1, proton-coupled peptide transporter; test: C14-glycyl-sarcosine uptake in cRNA-transformed oocytes in sodium-free or chloride-free solutions and at different pH; format: cell-based, rabbit
Text: This example describes the stoichiometry and voltage dependence of the proton-coupled peptide transporter. Four days after transformation with cRNA coding the proton-coupled peptide transporter, Xenopus laevis oocytes were examined in the presence of 1 mMC^14 -glycyl-sarcosine in standard uptake solution (pH 5.5), modified to be sodium or chloride ion free.
In sodium-free solutions, the sodium chloride was replaced with choline-chloride. In chloride free solutions, the sodium chloride was replaced with sodium nitrate.
Glycyl-sarcosine uptake was determined from the slope of the time-dependence of 1 to 5 minutes uptake. The results are depicted in bar graph form in FIG. 10. […] That is, the presence of or absence of sodium ion and the presence or absence of chloridion had little or no effect on glycyl-sarcosine uptake. In each instance the uptake was approximately 1000 pmol glycyl-sarcosine.
In this example Xenopus laevis oocytes transformed with cRNA coding the proton-coupled peptide transporter of the preceding example were evaluated for C^14 -glycyl-sarcosine uptake in the standard uptake solutions modified to different pH. Glycyl-sarcosine uptake was determined from the slope of time-dependence of 1 to 5 minute uptakes.

[3] = molecular target: T1, proton-coupled peptide transporter; test: Intracellular pH (pH-sensitive microelectrode) and membrane potential of cRNA-transformed oocytes; format: cell-based, rabbit; conditions: pHo 5.5 solution, Gly-Sar 10 mM; for membrane potential Vm after application: depolarized from -20 mV
Text: The example describes hydrogen ion cotransport by Xenopus laevis oocytes transformed with cRNA coding a proton-coupled peptide transporter. Transformed Xenopus laevis oocytes of Example 5 and 6 were implanted with microelectrodes and membrane potential set with electrodes.
Internal pH measurements were taken with microelectrodes, silanized borosilicate pipettes with tips filled with a hydrogen ionophore (I-cocktail B, Fluka). […] After washing with uptake solution without glycyl-sarcosine, each oocyte was clamped at this membrane potential. […] The equation used to calculate the electrochemical potential difference for H^+ (ΔμH) was ΔμH +=RT 1n ([H^+ ] i/[H^+ ]o)+zF (Vi -Vo) and that for Gly-Sar (ΔμGly-Sar) was ΔμGly-Sar =RT 1n ([Gly-Sar] i/ [Gly-Sar]o), where; R is the gas constant, T the absolute temperature (295° K.), F is Faraday's constant, pHi and pHo the intra- and extracellular pH, Gly-Sari and Gly-Saro, the intra-and extracelluar Gly-Sar concentrations, and z the valency.
Oocytes were initially kept in pH 7.4 medium (96 mM NaCl, 1 mM KCl, 1.8 mM CaCl2, 1.0 mM MgCl2 and 5 HEPES). […] In water-injected oocytes, lowering pHo from 7.4 to 5.5 caused a continuous pHi decrease which was not dependent on the expression of the proton-coupled peptide transporter.

[4] = molecular target: T1, proton-coupled peptide transporter; test: Stoichiometry (uptake versus net charge flux) and cumulative C14-glycyl-sarcosine uptake in cRNA-transformed oocytes; format: cell-based, rabbit
Description: Internal pH measurements were taken with microelectrodes, silanized borosilicate pipettes with tips filled with a hydrogen ionophore (I-cocktail B, Fluka). The membrane potential was measured in uptake solution (pH 5.5) containing 1 mM glycyl-sarcosine. After washing with uptake solution without glycyl-sarcosine, each oocyte was clamped at this membrane potential. […] The equation used to calculate the electrochemical potential difference for H^+ (ΔμH) was ΔμH +=RT 1n ([H^+ ] i/[H^+ ]o)+zF (Vi -Vo) and that for Gly-Sar (ΔμGly-Sar) was ΔμGly-Sar =RT 1n ([Gly-Sar] i/ [Gly-Sar]o), where; R is the gas constant, T the absolute temperature (295° K.), F is Faraday's constant, pHi and pHo the intra- and extracellular pH, Gly-Sari and Gly-Saro, the intra-and extracelluar Gly-Sar concentrations, and z the valency.
This 1:1 coupling ratio is consistent with analysis of the coupling ratio based on thermodynamic considerations. Cumulative uptake of C^14 -glycyl-sarcosine was measured as depicted in FIG. 14.
Data represent the average of the uptakes from 20-24 oocytes after subtraction of the uptakes of water-injected oocytes. After a ten hour incubation in 1 mM non-radiolabeled 1 mM glycyl-sarcosine, the ^14 C-glycyl-sarcosine influx was 1754±403 (n=7) pmol/oocyte.

[5] = molecular target: T1, proton-coupled peptide transporter; test: Uptake of C14-glycyl-sarcosine by Xenopus laevis oocytes injected with rabbit jejunum poly(A)+ RNA or transporter cRNA; format: cell-based; conditions: 100 μM C14-Gly-Sar, 1 hour, pH 5.5
Description: This example describes the uptake of radiolabeled glycyl-sarcosine (C^14 -Gly-Sar) by Xenopus laevis oocytes injected with poly(A)^+ RNA from rabbit jejunum or with cRNA synthesized by in vitro transcription of proton-coupled peptide transporter cDNA.
All uptakes in this and the following figures were performed with 6-8 oocytes, 3 days after injection. RNA-injected oocytes were injected with 25 ng cRNA in 50 nl.
Oocytes injected with cRNA coding a proton-coupled peptide transporter were incubated for 1 hour in uptake solution (100 mM NaCl, 2 mM KCl 1 mM MgCl2, 1 mM CaCl2, 3 mM HEPES, 3 mM MES, 3 mM Tris, pH 5.5) in the presence of 100 μM C^14 -glycol-sarcosine (specific radioactivity, 112 mCi/mmol, custom synthesized by the Radiochemical Center, Amersham, U.K.). The oocytes were rinsed with ice-cold washing solution (uptake solution with pH adjusted to 7.5 with Tris base) and the radioactivity of each oocyte was measured by scintillation counting.

[6] = molecular target: T1, proton-coupled peptide transporter; test: Hybrid depletion of rabbit small intestine poly(A)+ RNA with antisense/sense DNA oligonucleotide before oocyte injection, glycyl-sarcosine uptake; format: cell-based; conditions: oocytes receiving rabbit poly(A)+ RNA without sense or antisense nucleic acid
Text: This example describes hybrid depletion of rabbit small intestine poly(A)^+ RNA before injection into Xenopus laevis oocytes. A first admixture was formed of rabbit small intestine derived poly(A)^+ RNA and an antisense DNA oligonucleotide corresponding to the 5'-end coding region of cDNA corresponding to the proton-coupled peptide transporter.
A second admixture was formed of rabbit small intestine derived poly(A)^+ RNA and a sense DNA oligonucleotide corresponding to the same region as the antisense DNA. Both DNAs were twenty-three nucleotides in length. Rabbit jejunum poly(A)^+ RNA (0.5 μg/μl) was incubated with the oligonucleotide (0.25 μg/μl in the presence of 50 mM NaCl at 42° C. for one hour and then injected into oocytes. The uptake of the peptide, glycyl-sarcosine, was measured three days after injection.

[7] = molecular target: proton-coupled peptide transporter derived from rabbit (rabbit)
[8] = molecular target: proton-coupled peptide transporter derived from rabbit (rabbit); remark: listed apart in the source
[9] = substrate: NCC(=O)NCC(=O)NCC(=O)O; test: cells, lysate or membranes; conditions: other: current amplitudes at altered substrate concentrations, pH 5.5, cRNA-injected oocytes
[10] = substrate: CC1(C)S[C@@H]2[C@H](NC(=O)C3(N)CCCCC3)C(=O)N2[C@H]1C(=O)O; test: cells, lysate or membranes; conditions: other: current amplitudes at altered substrate concentrations, pH 5.5, cRNA-injected oocytes
[11] = substrate: C[C@H](N)C(=O)N[C@@H](CC(=O)O)C(=O)O; test: cells, lysate or membranes; format: cell-based, rabbit; conditions: other: current amplitudes at altered substrate concentrations, pH 5.5, cRNA-injected oocytes
[12] = substrate: CC(C)C[C@H](NC(=O)CN)C(=O)O; test: cells, lysate or membranes; format: cell-based, rabbit; conditions: other: current amplitudes at altered substrate concentrations, pH 5.5, cRNA-injected oocytes
[13] = substrate: CN(CC(=O)O)C(=O)CN; test: cells, lysate or membranes; format: cell-based, rabbit; conditions: other: current amplitudes at altered substrate concentrations, pH 5.5, cRNA-injected oocytes

CN(CC(=O)O)C(=O)CN [Glycyl-sarcosine, glycyl-sarcosine] (H-Gly-[Sar]-OH)
fraction of intracellular 14C-label that is hydrolyzed glycyl-sarcosine (Xenopus laevis oocytes): no more than one third | substrate-evoked inward current [1]: strongest current | glycyl-sarcosine uptake ([2]; 1 mM C14-glycyl-sarcosine, pH 5.5, presence or absence of sodium or chloride ion): approximately 1000 pmol | pH of maximum glycyl-sarcosine uptake ([2]; standard uptake solutions modified to different pH): 5.5 | membrane potential Vm after application [3]: +15 mV | effect on intracellular pH (pHi) ([3]; listed as Gly-Sar): large intracellular acidification | effect on intracellular pH (pHi) ([3]; listed as glycyl-sarcosine): decrease in pH | time to thermodynamic equilibrium of cumulative uptake ([4]; C14-glycyl-sarcosine, cRNA-transformed oocytes): approximately eight | 14C-glycyl-sarcosine influx ([4]; after ten hour incubation in 1 mM non-radiolabeled glycyl-sarcosine, n=7): 1754±403 pmol/oocyte | uptake of glycyl-sarcosine ([5]; oocytes receiving rabbit jejunum poly(A)+ RNA): less than 20 pmol | uptake of glycyl-sarcosine ([5]; oocytes receiving transporter cRNA): ~200 pmol | uptake of glycyl-sarcosine [6]: approximately 8 pmol

CC1=C(C(=O)O)N2C(=O)[C@@H](NC(=O)[C@H](N)c3ccc(O)cc3)[C@H]2SC1 [cefadroxil]
substrate-evoked inward current [1]: Significant currents

NCC(=O)O [glycine]
effect on intracellular pH (pHi) [3]: no detectable response | membrane potential Vm after application [3]: no detectable response

CC1(C)S[C@@H]2[C@H](NC(=O)C3(N)CCCCC3)C(=O)N2[C@H]1C(=O)O [Cyclacillin]
substrate-evoked inward current [1]: inward current

CC(C)C[C@H](NC(=O)CN)C(=O)O [Glycyl-leucine]
substrate-evoked inward current [1]: inward current

CC1=C(C(=O)O)N2C(=O)[C@@H](NC(=O)[C@H](N)C3=CCC=CC3)[C@H]2SC1 [cephradine]
substrate-evoked inward current [1]: Significant currents

glycyl-sarcosine (peptide)
Km from current amplitudes [7]: 1900 µM | uptake of C14-glycyl-sarcosine by oocytes [8]: 200 pmol

B1: proton-coupled peptide transporter (Oryctolagus cuniculus) (protein)
chain: T1 sequence (P36836 1-707)
notes: Xenopus laevis oocytes were injected with cRNA coding the proton-coupled peptide transporter; expressed in transfected cells; host or cells: Xenopus laevis oocytes injected with cRNA transcribed in vitro from the cloned cDNA
Km [9]: 5100 µM | Km [10]: 137 µM | Km [11]: 143 µM | Km [12]: 81 µM | Km [13]: 1900 µM
